These results are taken from patent US6204220A, “Substituted 2-oxo-3-alkynoic acids and methods of use thereof” (Rutgers, The State University of New Jersey, priority 1999, dated 2001).

Each structure is given as a SMILES string. Where two headings read alike, the source gives them in different places.

The target in test [1] is T1, Pyruvate decarboxylase from Saccharomyces cerevisiae (Saccharomyces cerevisiae, UniProt P06169).
T1 construct: made in house; host or cells: E. coli
T1 sequence (P06169 2-563 limits assumed): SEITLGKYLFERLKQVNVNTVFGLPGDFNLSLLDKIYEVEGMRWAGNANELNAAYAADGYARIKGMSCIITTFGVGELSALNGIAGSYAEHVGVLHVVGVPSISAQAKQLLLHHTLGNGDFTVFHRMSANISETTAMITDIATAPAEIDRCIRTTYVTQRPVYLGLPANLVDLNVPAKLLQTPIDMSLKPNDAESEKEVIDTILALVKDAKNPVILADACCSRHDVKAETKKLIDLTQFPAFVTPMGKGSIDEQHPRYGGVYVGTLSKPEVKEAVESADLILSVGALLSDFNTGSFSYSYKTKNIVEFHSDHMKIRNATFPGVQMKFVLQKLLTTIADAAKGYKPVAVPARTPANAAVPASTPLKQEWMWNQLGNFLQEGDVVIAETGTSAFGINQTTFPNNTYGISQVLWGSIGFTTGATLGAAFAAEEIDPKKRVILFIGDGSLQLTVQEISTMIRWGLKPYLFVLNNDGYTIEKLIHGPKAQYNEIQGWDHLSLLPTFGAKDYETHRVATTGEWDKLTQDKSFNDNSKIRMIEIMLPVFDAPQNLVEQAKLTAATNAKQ
Briefly: Inactivation of pyruvate decarboxylase (PDC). It counts as biochemical. As for the experimental part:
Pyruvate decarboxylase from Saccharomyces cerevisiae was overexpressed in E. coli (Baburina et al., 1994), then purified according to Farrenkopf & Jordan (1992). It was assayed spectrophotometrically by coupling to alcohol dehydrogenase (Holzer et al., 1960).

Test [2] addresses T2, PDHc (Escherichia coli, UniProt P0AFG8). The test can be described thus: Steady-state kinetics of PDHc, Km / [S]0.5 for pyruvate. The format is biochemical. Details: made in house; host or cells: E. coli JRG1342 (PDHc null), Ptac plasmid pGS523. The note with it: 3-lip PDHc; 0.22 mM without reagent. As for the experimental part: (§1) Activity and related measurements on PDHc. The overall enzymatic reaction of the PDH complex was assayed using a Varian DMS 300 spectrophotometer or the Cobas Bio (Roche Diagnostics, Somerville, N.J.) automated centrifugal analyzer, monitoring the pyruvate-dependent reduction of NAD^+ at 340 nm. The reaction medium contained in 1 mL (DMS 300) or 0.25 mL (Cobas-Bio) test volume: 0.1 M Tris-HCl, pH 8.0; 1 mM MgCl2; 2 mM sodium pyruvate; 2.5 mM NAD^+; 0.052-0.2 mM coenzyme A; 0.2 mM ThDP; and 2.6 mM DTT at 27° C. The reaction was initiated either by adding enzyme to a mixture of all other components, or by adding CoA.
The Michaelis-Menten constants (Km) for native PDHc and PDHc treated with 2-oxo-3-butynoic acid and 2-oxo-3-heptynoic acid were obtained by fitting steady-state rates at different pyruvate concentrations to the Hill equation and the logarithmic form of the Hill equation using the Delta Graph (Pro4) computer program.

The target in test [3] is T2, PDHc. The test can be described thus: Inactivation of 1-lip and 3-lip PDH complexes by 2-oxo-3-alkynoic acids (overall NADH assay). The format is biochemical, E. coli. Details: made in house; host or cells: E. coli JRG1342 (PDHc null) with Ptac plasmid pGS501 (1-lip) or pGS523 (3-lip). The following applies: for protection of PDHc from inactivation by pyruvate: 5 mM pyruvate, 1 mM ThDP, 5 mM MgCl2; for protection of PDHc from inactivation by pyruvate / inactivation of PDHc in the absence of ThDP: 3-lip (heptynoic) or 1-lip (butynoic) PDHc; for kapp, slow phase of inactivation / At (residual activity): 1-lip PDHc.
Description: Bacterial strains and plasmids for PDHc. Derivatives of the PDHc null strain, E. coli JRG1342 contained Ptac expression plasmids encoding PDHc with E2 chains bearing three lipoyl domains (3-lip PDHc; pGS523, the wild type parental complex), or a single lipoyl domain in each E2 subunit (1-lip PDHc; pGS501), and variant 1-lip PDH complexes with mutations in the E1 gene leading to C259S (pGS457) and C259N (pGS596) substitutions (Machado et al., 1992; Machado, 1993).
Purification of PDHc. Cultures for purification of 1-lip and 3-lip PDH complexes were grown at 37° C. in LB medium containing glucose (0.2%) and ampicillin (50 μg/mL). The PDH complexes were induced by adding IPTG to 60 μM as described by Russell et al. (1992). Cells were disrupted by ultrasonic treatment after preincubation with lysozyme (0.6 mg/mL final concentration) for 15 min. The PDHc was sedimented by ultracentrifugation (100,000×g for 3 h) and further purified by chromatography on a
Sephacryl S-400 HR column. Fractions containing PDHc were pooled and treated with ammonium sulfate to 70% saturation. The enzyme was dissolved in buffer A (20 mM potassium phosphate, pH 7.8, 2 mM Na2 EDTA, 1 mM PMSF, and 1 mM benzamidine.HCl) then dialyzed against the same buffer. The PDH complexes were stored in buffer A at -20° C.
as §1
One unit of activity is defined as the amount of NADH produced (μmol) per min per mg protein. The activity of resolved E1 was measured after reconstitution with excess E2-E3 subcomplex using the NADH assay for PDHc activity.
Inactivation of 1-lip and 3-lip PDH complexes and resolved E1 component by 2-oxo-3-alkynoic acids. Intact 1-lip or 3-lip PDH complexes (0.050-0.1 mg) or resolved E1 component (0.05-0.09 mg) were incubated in the dark with 5 mM MgCl2, […] of 2-oxo-3-alkynoic acids in 20 mM KH2 PO4 buffer, pH 7.5 at room temperature in a total volume 0.5 mL. The initial activity (100%) was assayed prior to the addition of 2-oxo-3-alkynoic acids. Samples (50 μL) were withdrawn periodically and diluted into 1 mL of assay solution, containing all components necessary for assay of the overall activity. The activity of untreated enzyme was stable during the time of inactivation.

The mark [4] stands for this setting: PDC, catalytic site, read-out: Ki,c.

On to `CCCC#CC(=O)C(=O)O` [2-oxo-3-heptynoic acid, 2-Oxo-3-heptynoic acid], for which, in test [1], the “inhibition / inactivation of PDC (in words)” value is “inhibit”. For the same compound, the saturation by inhibitor entry in test [1] (PDC) and in test [1] (PDC (+50 mM pyruvamide)) was “yes” each time. Besides, the Ki in test [1] (PDC (+50 mM pyruvamide), read-out: Ki,c) worked out at 59.7 µM; in test [1] (PDC (+50 mM pyruvamide), read-out: Ki,r) it was 382 µM; in test [1] (setting [4]), 447 µM; in test [1] (PDC, regulatory site, read-out: Ki,r), 921 µM; in test [3], 2850 µM. The kinact is 0.00523 s⁻¹ in test [1] (PDC (+50 mM pyruvamide), read-out: ki (converted)) and 0.01 s⁻¹ in test [1] (PDC, read-out: ki (converted)). Moreover, the kinact/KI is 22.5 M⁻¹ s⁻¹ in test [1] (read-out: kc/Ki,c, PDC); 87.7 M⁻¹ s⁻¹ in test [1] (read-out: kc/Ki,c, PDC (+50 mM pyruvamide)); 2.83 M⁻¹ s⁻¹ in test [3] (pH 7.5, read-out: ki/Ki PDHc). For the same compound, in test [2], the “[S]0.5 for pyruvate in the presence of / after treatment with inhibitor” value came to 0.234 ± 0.025 mM. Moreover, the “protection of PDHc from inactivation by pyruvate” value in test [3] is on record as “failed to protect”. Further, the “inactivation of PDHc in the absence of ThDP” value in test [3] is reported as “still inactivated to the same extent, but at a slower rate”. Moreover, the “protection from inactivation by DTT” value in test [3] (3-lip PDHc, 5 mM DTT) is “partial protection”. In test [3] (prolonged incubation), the “reactivation of inactivated 3-lip PDHc by hydroxylamine” value is recorded as “failure to reactivate”.
In the case of `C#CC(=O)C(=O)O` [2-oxo-3-butynoic acid, 2-Oxo-3-butynoic acid], the “inhibition / inactivation of PDC (in words)” value in test [1] was “irreversibly inactivates”. Further, the saturation by inhibitor result in test [1] (PDC) was “no”. The Ki in test [1] (setting [4]) came out at 2110 µM; in test [1] (PDC, read-out: Ki), 1100 µM; in test [3], 7.9 µM; in test [3] (read-out: Ki PDHc, PDHc (1-lip PDHc)), 7.9 µM. The kinact in test [1] (PDC, read-out: first order rate constant of inactivation (ki) (converted)) was 0.0009 s⁻¹; in test [1] (PDC, read-out: ki (converted)) it was 0.00141 s⁻¹. Besides, the kinact/KI in test [1] (read-out: kc/Ki,c, PDC) was 0.667 M⁻¹ s⁻¹; in test [1] (read-out: ki/Ki, PDC) it was 0.817 M⁻¹ s⁻¹; in test [3] (pH 7.5, second-order rate constant for inactivation, read-out: ki/Ki PDHc (converted)), 1730 M⁻¹ s⁻¹. Also, the “[S]0.5 for pyruvate in the presence of / after treatment with inhibitor” value in test [2] was 0.262 ± 0.069 mM. Further, the “inhibition / inactivation of PDHc (in words)” value in test [3] is “irreversibly inactivates”. Also, the “k for inactivation of PDHc” value in test [3] (0.11 mM inhibitor) is 0.69 min⁻¹. Moreover, the “protection of PDHc from inactivation by pyruvate” value in test [3] is listed as “partially protected”. Also, the “kapp, slow phase of inactivation” value amounted to 0.062 min⁻¹ in test [3] (0.1 mM inhibitor), 0.053 min⁻¹ in test [3] (0.5 mM inhibitor) and 0.056 min⁻¹ in test [3] (1.0 mM inhibitor). Moreover, the figures for the “At (residual activity)” value in test [3] (absence of pyruvate) and in test [3] (presence of 5 mM pyruvate) were 20% and 60%, respectively. Moreover, the “inactivation of PDHc in the absence of ThDP” value in test [3] is recorded as “partial inactivation”. This compound came in with an extent of inactivation in test [3] (3-lip PDHc) of 99.62%. Besides, in test [3] (3-lip PDHc, 20-fold dilution, 50 min incubation in overall reaction mixture), the “restoration of activity after dilution” value is given as “no restoration of activity”. In addition, in test [3] (after a fresh portion of inhibitor was added), the “PDHc activity at new plateau, of original activity” value was 6-8%. In addition, the “PDHc activity at plateau” value in test [3] (first portion of inhibitor, residual activity) was “about 30%”.
